Experiments:
AZD4320 = compound: CN(CC[C@H](CSC1=CC=CC=C1)NC2=C(C=C(C=C2)S(=O)(=O)NC(=O)C3=CC=C(C=C3)N4CCC(CC4)[C@H](C5=CC=CC=C5C6=CC=C(C=C6)Cl)O)S(=O)(=O)C(F)(F)F)CCO [AZD4320]; details: max 1 µM
How it was run: (§1)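 Cancer cell lines were plated in 1536-well plates in 7.5 μl of DMEM/F12 or RPMI with 10% FBS and kept 24 hours at 37°C and 5% CO2 before 72 hours of dosing, with final DMSO typically 0.2%. CellTiter-Glo 2.0 luminescence measured viability, scaled between blank-well and DMSO-well means. Dose responses were fitted to a two-parameter logistic curve with a non-linear mixed effects model. This fit gives the single-agent IC50.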

AZD1390 = compound: CC(C)n1c(=O)n(C)c2cnc3cc(F)c(-c4ccc(OCCCN5CCCCC5)nc4)cc3c21 [AZD1390]; details: max 0.3 µM
How it was run: as §1

Savolitinib = compound: C[C@@H](c1ccc2nccn2c1)n1nnc2ncc(-c3cnn(C)c3)nc21 [Savolitinib]; details: max 1 µM
How it was run: as §1

AZD5991 = compound: Cc1c2c(nn1C)CSCc1cc(n(C)n1)CSc1cc(c3ccccc3c1)OCCCc1c(C(=O)O)n(C)c3c-2c(Cl)ccc13 [AZD5991]; details: max 1 µM
How it was run: as §1

SG3199 = compound: CC1=CN2[C@@H](C1)C=NC3=CC(=C(C=C3C2=O)OC)OCCCCCOC4=C(C=C5C(=C4)N=C[C@@H]6CC(=CN6C5=O)C)OC [SG3199]; details: max 0.001 µM
How it was run: as §1

Doxorubicin = compound: COc1cccc2c1C(=O)c1c(O)c3c(c(O)c1C2=O)C[C@@](O)(C(=O)CO)C[C@@H]3O[C@H]1C[C@H](N)[C@H](O)[C@H](C)O1 [Doxorubicin]; details: max 1 µM
How it was run: as §1

5-Fluorouracil = compound: O=c1[nH]cc(F)c(=O)[nH]1 [5-Fluorouracil]; details: max 20 µM
How it was run: as §1

MK-2206 = compound: NC1(c2ccc(-c3nc4ccn5c(=O)[nH]nc5c4cc3-c3ccccc3)cc2)CCC1 [MK-2206]; details: max 10 µM
How it was run: as §1

SRA737 = compound: N#Cc1cnc(Nc2cc(NC[C@H]3CNCCO3)c(C(F)(F)F)cn2)cn1 [SRA737]; details: max 10 µM
How it was run: as §1

Selumetinib = compound: Cn1cnc2c(F)c(Nc3ccc(Br)cc3Cl)c(C(=O)NOCCO)cc21 [Selumetinib]; details: max 10 µM
How it was run: as §1

Etoposide = compound: COc1cc([C@@H]2c3cc4c(cc3[C@@H](O[C@@H]3O[C@@H]5CO[C@@H](C)O[C@H]5[C@H](O)[C@H]3O)[C@H]3COC(=O)[C@H]23)OCO4)cc(OC)c1O [Etoposide]; details: max 10 µM
How it was run: as §1

SN-38 = compound: CCc1c2c(nc3ccc(O)cc13)-c1cc3c(c(=O)n1C2)COC(=O)[C@]3(O)CC [SN-38]; details: max 0.3 µM
How it was run: as §1

Taselisib = compound: Cc1nc(-c2cn3c(n2)-c2ccc(-c4cnn(C(C)(C)C(N)=O)c4)cc2OCC3)n(C(C)C)n1 [Taselisib]; details: max 10 µM
How it was run: as §1

Crizotinib = compound: C[C@@H](Oc1cc(-c2cnn(C3CCNCC3)c2)cnc1N)c1c(Cl)ccc(F)c1Cl [Crizotinib]; details: max 10 µM
How it was run: as §1

AZD5363 = compound: C1CN(CCC1(C(=O)N[C@@H](CCO)C2=CC=C(C=C2)Cl)N)C3=NC=NC4=C3C=CN4 [AZD5363]; details: max 10 µM
How it was run: as §1

Gefitinib = compound: COc1cc2ncnc(Nc3ccc(F)c(Cl)c3)c2cc1OCCCN1CCOCC1 [Gefitinib]; details: max 10 µM
How it was run: as §1

AZD2811 = compound: CCN(CCO)CCCOc1ccc2c(Nc3cc(CC(=O)Nc4cccc(F)c4)[nH]n3)ncnc2c1 [AZD2811]; details: max 1 µM
How it was run: as §1

Paclitaxel = compound: CC(=O)O[C@H]1C(=O)[C@@]2(C)[C@H]([C@H](OC(=O)c3ccccc3)[C@]3(O)C[C@H](OC(=O)[C@H](O)[C@@H](NC(=O)c4ccccc4)c4ccccc4)C(C)=C1C3(C)C)[C@]1(OC(C)=O)CO[C@@H]1C[C@@H]2O [Paclitaxel]; details: max 3 µM
How it was run: as §1

AZD6738 = compound: C[C@@H]1COCCN1C2=NC(=NC(=C2)C3(CC3)[S@](=N)(=O)C)C4=C5C=CNC5=NC=C4 [AZD6738]; details: max 10 µM
How it was run: as §1

Prexasertib = compound: COc1cccc(OCCCN)c1-c1cc(Nc2cnc(C#N)cn2)n[nH]1 [Prexasertib]; details: max 1 µM
How it was run: as §1

AZD1775 = compound: C=CCn1c(=O)c2cnc(Nc3ccc(N4CCN(C)CC4)cc3)nc2n1-c1cccc(C(C)(C)O)n1 [AZD1775]; details: max 3 µM
How it was run: as §1

Olaparib = compound: O=C(c1cc(Cc2n[nH]c(=O)c3ccccc23)ccc1F)N1CCN(C(=O)C2CC2)CC1 [Olaparib]; details: max 10 µM
How it was run: as §1

Alisertib = compound: COc1cc(Nc2ncc3c(n2)-c2ccc(Cl)cc2C(c2c(F)cccc2OC)=NC3)ccc1C(=O)O [Alisertib]; details: max 10 µM
How it was run: as §1

Gemcitabine = compound: Nc1ccn([C@@H]2O[C@H](CO)[C@@H](O)C2(F)F)c(=O)n1 [Gemcitabine]; details: max 0.3 µM
How it was run: as §1

[1] = compound: O=C(Nc1ccc2[nH]nc(-c3ccncc3)c2c1)[C@@H]1CCN(CC(=O)N2CCN(c3ccc(-c4ncccn4)cc3)CC2)C1; details: max 5 µM
How it was run: as §1

AZD0156 = compound: CN(C)CCCOc1ccc(-c2ccc3ncc4c(c3c2)n(C2CCOCC2)c(=O)n4C)cn1 [AZD0156]; details: max 3 µM
How it was run: as §1

Carboplatin = compound: C1CC(C1)(C(=O)[O-])C(=O)[O-].N.N.[Pt+2] [Carboplatin]; details: max 10 µM
How it was run: as §1

Dasatinib = compound: CC1=C(C(=CC=C1)Cl)NC(=O)C2=CN=C(S2)NC3=CC(=NC(=N3)C)N4CCN(CC4)CCO [Dasatinib]; details: max 2 µM
How it was run: as §1

AZD8186 = compound: C[C@@H](Nc1cc(F)cc(F)c1)c1cc(C(=O)N(C)C)cc2c(=O)cc(N3CCOCC3)oc12 [AZD8186]; details: max 10 µM
How it was run: as §1

AZD7648 = compound: Cc1cc2ncnn2cc1Nc1ncc2c(n1)n(C1CCOCC1)c(=O)n2C [AZD7648]; details: max 10 µM
How it was run: as §1

Trametinib = compound: CC(=O)Nc1cccc(-n2c(=O)n(C3CC3)c(=O)c3c(Nc4ccc(I)cc4F)n(C)c(=O)c(C)c32)c1 [Trametinib]; details: max 1 µM
How it was run: as §1

AZD5153 = compound: COc1nnc2ccc(N3CCC(c4ccc(OCCN5CCN(C)C(=O)[C@H]5C)cc4)CC3)nn12 [AZD5153]; details: max 1 µM
How it was run: as §1

Venetoclax = compound: CC1(C)CCC(CN2CCN(c3ccc(C(=O)NS(=O)(=O)c4ccc(NCC5CCOCC5)c([N+](=O)[O-])c4)c(Oc4cnc5[nH]ccc5c4)c3)CC2)=C(c2ccc(Cl)cc2)C1 [Venetoclax]; details: max 1 µM
How it was run: as §1

Lapatinib = compound: CS(=O)(=O)CCNCc1ccc(-c2ccc3ncnc(Nc4ccc(OCc5cccc(F)c5)c(Cl)c4)c3c2)o1 [Lapatinib]; details: max 10 µM
How it was run: as §1

Palbociclib = compound: CC(=O)c1c(C)c2cnc(Nc3ccc(N4CCNCC4)cn3)nc2n(C2CCCC2)c1=O [Palbociclib]; details: max 10 µM
How it was run: as §1

Row | Cell Line | IC50, cell viability 72 h (AZD4320) | IC50, cell viability 72 h (AZD1390) | IC50, cell viability 72 h (Savolitinib) | IC50, cell viability 72 h (AZD5991) | IC50, cell viability 72 h (SG3199) | IC50, cell viability 72 h (Doxorubicin) | IC50, cell viability 72 h (5-Fluorouracil) | IC50, cell viability 72 h (MK-2206) | IC50, cell viability 72 h (SRA737) | IC50, cell viability 72 h (Selumetinib) | IC50, cell viability 72 h (Etoposide) | IC50, cell viability 72 h (SN-38) | IC50, cell viability 72 h (Taselisib) | IC50, cell viability 72 h (Crizotinib) | IC50, cell viability 72 h (AZD5363) | IC50, cell viability 72 h (Gefitinib) | IC50, cell viability 72 h (AZD2811) | IC50, cell viability 72 h (Paclitaxel) | IC50, cell viability 72 h (AZD6738) | IC50, cell viability 72 h (Prexasertib) | IC50, cell viability 72 h (AZD1775) | IC50, cell viability 72 h (Olaparib) | IC50, cell viability 72 h (Alisertib) | IC50, cell viability 72 h (Gemcitabine) | IC50, cell viability 72 h [1] | IC50, cell viability 72 h (AZD0156) | IC50, cell viability 72 h (Carboplatin) | IC50, cell viability 72 h (Dasatinib) | IC50, cell viability 72 h (AZD8186) | IC50, cell viability 72 h (AZD7648) | IC50, cell viability 72 h (Trametinib) | IC50, cell viability 72 h (AZD5153) | IC50, cell viability 72 h (Venetoclax) | IC50, cell viability 72 h (Lapatinib) | IC50, cell viability 72 h (Palbociclib)
1 | NCI-H1755 (Lung Adenocarcinoma) | > 1000 nM | > 300 nM | > 1000 nM | > 1000 nM | > 1 nM | > 1000 nM | > 20000 nM | > 10000 nM | 2300 nM | > 10000 nM | > 10000 nM | > 300 nM | 2410 nM | 3970 nM | > 10000 nM | > 10000 nM | > 1000 nM | 58.2 nM | 2080 nM | 10.8 nM | 363 nM | > 10000 nM | 3910 nM | > 300 nM | 1950 nM | > 3000 nM | > 10000 nM | 211 nM | > 10000 nM | > 10000 nM | 444 nM | > 1000 nM | > 1000 nM | > 10000 nM | 9000 nM
2 | HCC-44 (Lung Adenocarcinoma) | > 1000 nM | > 300 nM | > 1000 nM | > 1000 nM |  |  | > 20000 nM | > 10000 nM | > 10000 nM | > 10000 nM | > 10000 nM | 177 nM | 2240 nM | 8920 nM | 9960 nM | > 10000 nM | > 1000 nM | 13.6 nM | > 10000 nM |  | 934 nM | > 10000 nM |  | 225 nM | 2800 nM | > 3000 nM | > 10000 nM | 705 nM | > 10000 nM | > 10000 nM | 236 nM | 290 nM | > 1000 nM | > 10000 nM | > 10000 nM
